# Data reported in patent US10344060B2 (priority 2013, dated 2019).
# Like-named read-outs stand apart in the source and are kept apart here.
# Biological target: hNav1.7 (Homo sapiens, UniProt Q15858)
# Assay: cell-based
# Format: cell-based
# Settings: read-out: PX hNav1.7 Tonic IC50
# [1] = Table 12, PatchXpress, tonic block
# Chain of hNav1.7 (Q15858 whole entry): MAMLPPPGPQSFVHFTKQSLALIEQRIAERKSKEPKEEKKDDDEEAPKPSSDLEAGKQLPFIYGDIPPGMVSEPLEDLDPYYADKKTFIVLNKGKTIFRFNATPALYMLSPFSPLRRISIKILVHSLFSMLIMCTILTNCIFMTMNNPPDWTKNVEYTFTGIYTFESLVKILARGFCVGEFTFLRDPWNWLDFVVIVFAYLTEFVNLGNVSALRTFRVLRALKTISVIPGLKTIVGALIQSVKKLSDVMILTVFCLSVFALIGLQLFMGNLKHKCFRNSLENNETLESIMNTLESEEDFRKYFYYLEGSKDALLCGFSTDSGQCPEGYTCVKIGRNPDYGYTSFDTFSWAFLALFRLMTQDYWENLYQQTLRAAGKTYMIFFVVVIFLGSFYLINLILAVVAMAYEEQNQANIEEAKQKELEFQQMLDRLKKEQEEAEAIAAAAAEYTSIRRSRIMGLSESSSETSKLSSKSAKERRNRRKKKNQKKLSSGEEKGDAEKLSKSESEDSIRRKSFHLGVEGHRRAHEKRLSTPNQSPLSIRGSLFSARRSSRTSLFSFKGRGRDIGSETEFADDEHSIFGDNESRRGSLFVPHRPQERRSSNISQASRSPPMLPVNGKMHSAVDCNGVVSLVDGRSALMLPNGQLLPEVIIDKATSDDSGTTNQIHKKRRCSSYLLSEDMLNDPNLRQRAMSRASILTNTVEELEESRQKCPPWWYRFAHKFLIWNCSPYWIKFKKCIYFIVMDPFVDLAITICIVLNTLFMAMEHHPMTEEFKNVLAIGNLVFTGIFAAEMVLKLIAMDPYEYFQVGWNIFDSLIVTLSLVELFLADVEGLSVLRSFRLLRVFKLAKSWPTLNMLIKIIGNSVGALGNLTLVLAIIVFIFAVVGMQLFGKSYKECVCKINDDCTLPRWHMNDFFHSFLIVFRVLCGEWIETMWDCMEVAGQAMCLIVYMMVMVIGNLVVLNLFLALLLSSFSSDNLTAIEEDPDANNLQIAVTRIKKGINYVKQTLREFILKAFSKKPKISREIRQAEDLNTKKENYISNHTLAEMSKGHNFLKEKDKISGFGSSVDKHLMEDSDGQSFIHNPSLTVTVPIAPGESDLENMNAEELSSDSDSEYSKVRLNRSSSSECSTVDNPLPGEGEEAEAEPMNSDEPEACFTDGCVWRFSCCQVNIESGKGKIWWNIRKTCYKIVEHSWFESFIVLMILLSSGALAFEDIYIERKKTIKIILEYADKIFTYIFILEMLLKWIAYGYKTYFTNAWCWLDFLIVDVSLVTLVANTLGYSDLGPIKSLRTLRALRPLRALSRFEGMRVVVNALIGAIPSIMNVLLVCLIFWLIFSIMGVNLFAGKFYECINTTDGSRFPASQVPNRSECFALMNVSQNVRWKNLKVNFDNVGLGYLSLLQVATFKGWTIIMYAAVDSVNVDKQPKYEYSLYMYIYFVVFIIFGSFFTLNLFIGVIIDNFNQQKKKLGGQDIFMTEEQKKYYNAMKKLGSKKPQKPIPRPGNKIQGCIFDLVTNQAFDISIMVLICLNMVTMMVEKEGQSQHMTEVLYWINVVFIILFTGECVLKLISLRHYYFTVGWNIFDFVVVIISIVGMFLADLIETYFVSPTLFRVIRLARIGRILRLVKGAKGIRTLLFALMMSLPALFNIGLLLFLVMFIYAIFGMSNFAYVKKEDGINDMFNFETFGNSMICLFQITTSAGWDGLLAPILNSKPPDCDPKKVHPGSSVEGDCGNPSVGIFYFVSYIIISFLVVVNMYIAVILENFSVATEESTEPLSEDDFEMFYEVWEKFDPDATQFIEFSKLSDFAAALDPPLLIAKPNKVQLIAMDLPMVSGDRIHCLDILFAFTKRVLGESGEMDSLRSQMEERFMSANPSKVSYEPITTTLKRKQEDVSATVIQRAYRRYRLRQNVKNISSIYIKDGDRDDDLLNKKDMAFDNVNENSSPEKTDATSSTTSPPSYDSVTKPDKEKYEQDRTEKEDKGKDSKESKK
Compound,IC50 [1],IC50
C#CC[C@@H]1NC(=O)[C@@H]2CSSC[C@H](NC(=O)[C@H](Cc3ccc(O)cc3)NC(=O)[C@@H](N)CC#N)C(=O)N[C@@H](CCC(N)=O)C(=O)N[C@@H](CCCCN)C(=O)N[C@@H](Cc3c[nH]c4ccccc34)C(=O)N[C@@H](CCCC)C(=O)N[C@@H](Cc3c[nH]c4ccccc34)C(=O)N[C@@H]([C@@H](C)O)C(=O)N[C@H]3CSSC[C@H](NC(=O)[C@H](CCCNC(=N)N)NC(=O)[C@H](CC(C)C)NC(=O)CNC1=O)C(=O)N[C@@H](CCCCN)C(=O)N[C@@H](CC(C)C)C(=O)N[C@@H](Cc1c[nH]c4cc(C)ccc14)C(=O)N[C@H](C(=O)N[C@@H](CCCNC(=N)N)C(=O)N[C@@H](CCCCN)C(=O)N[C@@H](CCC(=O)O)C(=O)N[C@H](C(N)=O)[C@@H](C)CC)CSSC[C@H](NC(=O)[C@H](C)NC(=O)[C@H](CCCNC(=N)N)NC(=O)[C@H](CCCCN)NC(=O)[C@H](CO)NC(=O)[C@H](CC(=O)O)NC3=O)C(=O)N2 [compound 874],14 nM,
C#CC[C@@H]1NC(=O)[C@@H]2CSSC[C@H](NC(=O)[C@H](Cc3ccc(O)cc3)NC(=O)[C@@H](N)CC#N)C(=O)N[C@@H](CCC(N)=O)C(=O)N[C@@H](CCCCN)C(=O)N[C@@H](Cc3c[nH]c4ccccc34)C(=O)N[C@@H](CCCC)C(=O)N[C@@H](Cc3c[nH]c4ccccc34)C(=O)N[C@@H]([C@@H](C)O)C(=O)N[C@H]3CSSC[C@H](NC(=O)[C@H](CCCNC(=N)N)NC(=O)[C@H](CC(C)C)NC(=O)CNC1=O)C(=O)N[C@@H](CCCCN)C(=O)N[C@@H](CC(C)C)C(=O)N[C@@H](Cc1c[nH]c4c(Br)cccc14)C(=O)N[C@H](C(=O)N[C@@H](CCCNC(=N)N)C(=O)N[C@@H](CCCCN)C(=O)N[C@@H](CCC(=O)O)C(=O)N[C@H](C(N)=O)[C@@H](C)CC)CSSC[C@H](NC(=O)[C@H](C)NC(=O)[C@H](CCCNC(=N)N)NC(=O)[C@H](CCCCN)NC(=O)[C@H](CO)NC(=O)[C@H](CC(=O)O)NC3=O)C(=O)N2 [compound 875],25.3 nM,
C#CC[C@@H]1NC(=O)[C@H](CO)NC(=O)[C@H](CC(=O)O)NC(=O)[C@@H]2CSSC[C@@H]3NC(=O)[C@H](CCCNC(=N)N)NC(=O)[C@H](CC(C)C)NC(=O)CNC(=O)[C@H](CCC(=O)O)NC(=O)[C@H](CSSC[C@H](NC(=O)[C@@H](N)Cc4ccc(O)cc4)C(=O)N[C@@H](CCC(N)=O)C(=O)N[C@@H](CCCCN)C(=O)N[C@@H](Cc4c[nH]c5ccccc45)C(=O)N[C@@H](CCCC)C(=O)N[C@@H](Cc4c[nH]c5ccccc45)C(=O)N[C@@H]([C@@H](C)O)C(=O)N2)NC(=O)[C@H](CSSC[C@@H](C(=O)N[C@@H](CCCNC(=N)N)C(=O)N[C@@H](CCCCN)C(=O)N[C@@H](CCC(=O)O)C(=O)N[C@H](C(N)=O)[C@@H](C)CC)NC(=O)[C@H](Cc2c[nH]c4ccccc24)NC(=O)[C@H](CC(C)C)NC(=O)[C@H](CCCCN)NC3=O)NC(=O)[C@H](C)NC(=O)[C@H](CCCNC(=N)N)NC1=O [compound 879],1.35 nM,
CCCC[C@@H]1NC(=O)[C@H](Cc2c[nH]c3ccccc23)NC(=O)[C@H](CCCCN)NC(=O)[C@H](CCC(N)=O)NC(=O)[C@@H](NC(=O)[C@H](Cc2ccc(O)cc2)NC(=O)[C@@H](N)CC#N)CSSC[C@@H]2NC(=O)[C@@H]3CSSC[C@@H](C(=O)N[C@@H](CCCNC(=N)N)C(=O)N[C@@H](CCCCN)C(=O)N[C@@H](CCC(=O)O)C(=O)N[C@H](C(N)=O)[C@@H](C)CC)NC(=O)[C@H](Cc4c[nH]c5ccccc45)NC(=O)[C@H](CC(C)C)NC(=O)[C@H](CCCCN)NC(=O)[C@H](CSSC[C@H](NC(=O)[C@H]([C@@H](C)O)NC(=O)[C@H](Cc4c[nH]c5ccccc45)NC1=O)C(=O)N[C@@H](CC(=O)O)C(=O)N[C@@H](CO)C(=O)N[C@@H](CCCCN)C(=O)N[C@@H](CCCNC(=N)N)C(=O)N[C@@H](C)C(=O)N3)NC(=O)[C@H](CCCNC(=N)N)NC(=O)[C@H](CC(C)C)NC(=O)CNC(=O)[C@H](Cc1cn(CCCCCCCCCCCCCCC(=O)O)nn1)NC2=O [compound 895],,260 nM
